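Five compound concentrations were applied to cells in 96-well plates for 48 hours; endpoints were derived by simple linear interpolation of the resulting dose-response curve. GI50: concentration for 50% inhibition of growth.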 The source made the active and inactive calls. No stated cut-off is given here; in the data, active = GI50 up to about 1.1 µM and inactive = higher.
Columns and labels:
Assay in all cases: inhibition of tumour cell growth, NCI panel, 48 h
SK-MEL-2 = tested on: SK-MEL-2
786-0 = tested on: 786-0
NCI-H226 = tested on: NCI-H226
A498 = tested on: A498
Malme-3M = tested on: Malme-3M
MCF7 = tested on: MCF7
Hs-578T = tested on: Hs-578T
HT-29 = tested on: HT-29
CCRF-CEM = tested on: CCRF-CEM
T47D = tested on: T47D
SNB-19 = tested on: SNB-19
EKVX = tested on: EKVX
OVCAR-4 = tested on: OVCAR-4
SF-539 = tested on: SF-539
SK-MEL-5 = tested on: SK-MEL-5
UACC-62 = tested on: UACC-62
LOX IMVI = tested on: LOX IMVI
ACHN = tested on: ACHN
MDA-MB-231 = tested on: MDA-MB-231
SK-OV-3 = tested on: SK-OV-3
COLO 205 = tested on: COLO 205
HOP-62 = tested on: HOP-62
SK-MEL-28 = tested on: SK-MEL-28
SN12C = tested on: SN12C
SF-295 = tested on: SF-295
NCI-H23 = tested on: NCI-H23
NCI-H460 = tested on: NCI-H460
HOP-92 = tested on: HOP-92
MOLT-4 = tested on: MOLT-4
UACC-257 = tested on: UACC-257
DU-145 = tested on: DU-145
CAKI-1 = tested on: CAKI-1
MDA-MB-435 = tested on: MDA-MB-435
RXF 393 = tested on: RXF 393
A549 = tested on: A549
SF-268 = tested on: SF-268
U-251 = tested on: U-251
BT-549 = tested on: BT-549
RPMI-8226 = tested on: RPMI-8226
HCT-116 = tested on: HCT-116
HL-60 = tested on: HL-60
M14 = tested on: M14
NCI/ADR-RES = tested on: NCI/ADR-RES
SR = tested on: SR
MDA-N = tested on: MDA-N
IGROV-1 = tested on: IGROV-1
SW-620 = tested on: SW-620
PC-3 = tested on: PC-3
K562 = tested on: K562
HCC 2998 = tested on: HCC 2998
NCI-H522 = tested on: NCI-H522
SNB-75 = tested on: SNB-75
OVCAR-8 = tested on: OVCAR-8
TK-10 = tested on: TK-10
HCT-15 = tested on: HCT-15
KM12 = tested on: KM12
OVCAR-5 = tested on: OVCAR-5
UO-31 = tested on: UO-31
OVCAR-3 = tested on: OVCAR-3
LXFL 529 = tested on: LXFL 529
KM-20L2 = tested on: KM-20L2
SNB-78 = tested on: SNB-78
M19-MEL = tested on: M19-MEL
DMS-114 = tested on: DMS-114

CCCC(=O)Nc1cc(/C=C/C(=O)N2CC(CCl)c3c2cc(O)c2[nH]cc(C)c32)n(C)c1 (stereo not given)
GI50 (SK-MEL-2): < 2.5e-05 µM (active)
GI50 (786-0): < 2.5e-05 µM (active)
GI50 (NCI-H226): < 2.5e-05 µM (active)
GI50 (A498): < 2.5e-05 µM (active)
GI50 (Malme-3M): < 2.5e-05 µM (active)
GI50 (MCF7): < 2.5e-05 µM (active)
GI50 (Hs-578T): < 2.5e-05 µM (active)
GI50 (HT-29): < 2.5e-05 µM (active)
GI50 (CCRF-CEM): < 2.5e-05 µM (active)
GI50 (T47D): < 2.5e-05 µM (active)
GI50 (SNB-19): < 2.5e-05 µM (active)
GI50 (EKVX): < 2.5e-05 µM (active)
GI50 (OVCAR-4): < 2.5e-05 µM (active)
GI50 (SF-539): < 2.5e-05 µM (active)
GI50 (SK-MEL-5): < 2.5e-05 µM (active)
GI50 (UACC-62): < 2.5e-05 µM (active)
GI50 (LOX IMVI): < 2.5e-05 µM (active)
GI50 (ACHN): < 0.025 nM (active)
GI50 (MDA-MB-231): < 2.5e-05 µM (active)
GI50 (SK-OV-3): < 2.5e-05 µM (active)
GI50 (COLO 205): < 2.5e-05 µM (active)
GI50 (HOP-62): < 2.5e-05 µM (active)
GI50 (SK-MEL-28): < 2.5e-05 µM (active)
GI50 (SN12C): < 2.5e-05 µM (active)
GI50 (SF-295): < 2.5e-05 µM (active)
GI50 (NCI-H23): < 2.5e-05 µM (active)
GI50 (NCI-H460): < 2.5e-05 µM (active)
GI50 (HOP-92): < 2.5e-05 µM (active)
GI50 (MOLT-4): < 2.5e-05 µM (active)
GI50 (UACC-257): < 2.5e-05 µM (active)
GI50 (DU-145): < 2.5e-05 µM (active)
GI50 (CAKI-1): < 2.5e-05 µM (active)
GI50 (MDA-MB-435): < 2.5e-05 µM (active)
GI50 (RXF 393): < 2.5e-05 µM (active)
GI50 (A549): < 2.5e-05 µM (active)
GI50 (SF-268): < 2.5e-05 µM (active)
GI50 (U-251): < 2.5e-05 µM (active)
GI50 (BT-549): < 2.5e-05 µM (active)
GI50 (RPMI-8226): 5.49e-05 µM (active)
GI50 (HCT-116): < 2.5e-05 µM (active)
GI50 (HL-60): < 2.5e-05 µM (active)
GI50 (M14): < 2.5e-05 µM (active)
GI50 (NCI/ADR-RES): 9.64e-05 µM (active)
GI50 (SR): < 2.5e-05 µM (active)
GI50 (MDA-N): < 2.5e-05 µM (active)
GI50 (IGROV-1): < 2.5e-05 µM (active)
GI50 (SW-620): < 2.5e-05 µM (active)
GI50 (PC-3): < 2.5e-05 µM (active)
GI50 (K562): 3.79e-05 µM (active)
GI50 (HCC 2998): < 2.5e-05 µM (active)
GI50 (NCI-H522): < 2.5e-05 µM (active)
GI50 (SNB-75): < 2.5e-05 µM (active)
GI50 (OVCAR-8): < 2.5e-05 µM (active)
GI50 (TK-10): < 2.5e-05 µM (active)
GI50 (HCT-15): 0.000117 µM
GI50 (KM12): < 2.5e-05 µM (active)
GI50 (OVCAR-5): < 2.5e-05 µM (active)
GI50 (UO-31): < 2.5e-05 µM (active)
GI50 (OVCAR-3): < 2.5e-05 µM (active)

COc1cc2c(cc1OC)C1C(=O)c3c(O)cc4c(c3OC1CO2)C=CC(C)(C)O4 (stereo not given)
GI50 (SK-MEL-2): 18.8 µM (inactive)
GI50 (LXFL 529): 7.03 µM (inactive)
GI50 (A498): 21.6 µM (inactive)
GI50 (Malme-3M): 20.6 µM (inactive)
GI50 (HT-29): 27.8 µM (inactive)
GI50 (SF-539): 18.2 µM (inactive)
GI50 (KM-20L2): 29.5 µM (inactive)
GI50 (SK-MEL-5): 1.17 µM (inactive)
GI50 (UACC-62): 12.9 µM (inactive)
GI50 (LOX IMVI): 5.89 µM (inactive)
GI50 (ACHN): 748 nM (active)
GI50 (SNB-78): 31.9 µM (inactive)
GI50 (M19-MEL): 13.8 µM (inactive)
GI50 (SK-OV-3): 22.3 µM (inactive)
GI50 (HOP-62): 14.8 µM (inactive)
GI50 (SK-MEL-28): 35.6 µM (inactive)
GI50 (SN12C): 27.2 µM (inactive)
GI50 (NCI-H460): 20.8 µM (inactive)
GI50 (HOP-92): 18.2 µM (inactive)
GI50 (CAKI-1): 21.7 µM (inactive)
GI50 (A549): 2.25 µM (inactive)
GI50 (SF-268): 27.6 µM (inactive)
GI50 (U-251): 12.3 µM (inactive)
GI50 (DMS-114): 0.366 µM (active)
GI50 (HCT-116): 10.9 µM (inactive)
GI50 (M14): 23.5 µM (inactive)
GI50 (SR): > 100 µM (inactive)
GI50 (IGROV-1): 19 µM (inactive)
GI50 (SW-620): 23.5 µM (inactive)
GI50 (NCI-H522): 1.28 µM (inactive)
GI50 (SNB-75): 26.7 µM (inactive)
GI50 (TK-10): 32.8 µM (inactive)
GI50 (HCT-15): 19.1 µM
GI50 (KM12): 9.44 µM (inactive)
GI50 (OVCAR-5): 84.1 µM (inactive)
GI50 (UO-31): 3.01 µM (inactive)
GI50 (OVCAR-3): 13.5 µM (inactive)

[O-][n+]1onc2c3nn(-c4ccccc4)nc3ccc21
GI50 (SK-MEL-2): > 100 µM (inactive)
GI50 (786-0): > 100 µM (inactive)
GI50 (NCI-H226): > 100 µM (inactive)
GI50 (A498): > 100 µM (inactive)
GI50 (Malme-3M): > 100 µM (inactive)
GI50 (MCF7): 7.69 µM (inactive)
GI50 (Hs-578T): 32.1 µM (inactive)
GI50 (HT-29): 35.2 µM (inactive)
GI50 (CCRF-CEM): 25.6 µM (inactive)
GI50 (T47D): 7.4 µM (inactive)
GI50 (SNB-19): > 100 µM (inactive)
GI50 (EKVX): > 74.8 µM (inactive)
GI50 (OVCAR-4): > 100 µM (inactive)
GI50 (SF-539): > 100 µM (inactive)
GI50 (SK-MEL-5): > 100 µM (inactive)
GI50 (UACC-62): > 86.1 µM (inactive)
GI50 (LOX IMVI): 13.2 µM (inactive)
GI50 (ACHN): 88300 nM (inactive)
GI50 (MDA-MB-231): > 100 µM (inactive)
GI50 (SK-OV-3): > 100 µM (inactive)
GI50 (COLO 205): 61.8 µM (inactive)
GI50 (HOP-62): 77.1 µM (inactive)
GI50 (SK-MEL-28): > 100 µM (inactive)
GI50 (SN12C): > 100 µM (inactive)
GI50 (SF-295): > 100 µM (inactive)
GI50 (NCI-H23): 41.6 µM (inactive)
GI50 (NCI-H460): > 100 µM (inactive)
GI50 (HOP-92): > 100 µM (inactive)
GI50 (MOLT-4): 5.08 µM (inactive)
GI50 (UACC-257): 28.8 µM (inactive)
GI50 (DU-145): 17.8 µM (inactive)
GI50 (CAKI-1): > 100 µM (inactive)
GI50 (MDA-MB-435): > 100 µM (inactive)
GI50 (RXF 393): > 65.9 µM (inactive)
GI50 (A549): > 100 µM (inactive)
GI50 (SF-268): > 86.7 µM (inactive)
GI50 (U-251): > 100 µM (inactive)
GI50 (BT-549): > 82.6 µM (inactive)
GI50 (RPMI-8226): 6.32 µM (inactive)
GI50 (HCT-116): > 100 µM (inactive)
GI50 (HL-60): 2.35 µM (inactive)
GI50 (M14): > 100 µM (inactive)
GI50 (NCI/ADR-RES): > 100 µM (inactive)
GI50 (SR): 4.43 µM (inactive)
GI50 (MDA-N): > 100 µM (inactive)
GI50 (IGROV-1): > 100 µM (inactive)
GI50 (SW-620): 65.8 µM (inactive)
GI50 (PC-3): > 83.2 µM (inactive)
GI50 (K562): > 100 µM (inactive)
GI50 (HCC 2998): 15.6 µM (inactive)
GI50 (NCI-H522): > 96.2 µM (inactive)
GI50 (SNB-75): > 100 µM (inactive)
GI50 (OVCAR-8): > 91.4 µM (inactive)
GI50 (TK-10): > 71.1 µM (inactive)
GI50 (HCT-15): 49.5 µM
GI50 (KM12): 18.6 µM (inactive)
GI50 (OVCAR-5): > 100 µM (inactive)
GI50 (UO-31): > 100 µM (inactive)
GI50 (OVCAR-3): 22.2 µM (inactive)
